Experimental data taken from ChEMBL document CHEMBL1155989, “Discovery of novel diarylketoxime derivatives as selective and orally active melanin-concentrating hormone 1 receptor antagonists” (Bioorg Med Chem Lett, 2009).
Values belong to the molecule of their own block, whether it stands above or below them.

Columns and labels:
[1] = Half life in Sprague-Dawley rat at 1 mg/kg, iv; type: ADME, organism-based; design: dose 1 mg/kg, route intravenous; conditions: in vivo
[2] = Metabolic stability in rat liver microsomes assessed as compound remaining after 30 mins; type: ADME, Microsome; conditions: read-out: Stability
[3] = Cmax in diet-induced obese C57BL/6J mouse at 10 mg/kg, po; type: ADME, organism-based; design: dose 10 mg/kg, route oral; conditions: in vivo
[4] = Cmax in diet-induced obese C57BL/6J mouse at 30 mg/kg, po; type: ADME, organism-based; design: dose 30 mg/kg, route oral; conditions: in vivo
[5] = Tmax in diet-induced obese C57BL/6J mouse at 10 mg/kg, po; type: ADME, organism-based; design: dose 10 mg/kg, route oral; conditions: in vivo
[6] = Cmax in Sprague-Dawley rat at 3 mg/kg, po; type: ADME, organism-based; design: dose 3 mg/kg, route oral; conditions: in vivo
[7] = AUC (0 to infinity) in diet-induced obese C57BL/6J mouse at 10 mg/kg, po; type: ADME, organism-based; design: time infinity, dose 10 mg/kg, route oral; conditions: plasma
[8] = Ratio of drug level in brain to plasma of diet-induced obese C57BL/6J mouse at 30 mg/kg, po after 24 hrs; type: ADME, organism-based; design: dose 30 mg/kg, route oral
[9] = Tmax in diet-induced obese C57BL/6J mouse at 30 mg/kg, po; type: ADME, organism-based; design: dose 30 mg/kg, route oral; conditions: in vivo
[10] = system: Rattus norvegicus; assay: AUC (0 to infinity) in Sprague-Dawley rat at 3 mg/kg, po; type: ADME, organism-based, Plasma; design: time infinity, dose 3 mg/kg, route oral; conditions: in vivo
[11] = AUC (0 to infinity) in diet-induced obese C57BL/6J mouse at 30 mg/kg, po; type: ADME, organism-based; design: time infinity, dose 30 mg/kg, route oral; conditions: plasma
[12] = Drug level in Sprague-Dawley rat cerebrospinal fluid at 10 mg/kg, po after 2 hrs; type: ADME, organism-based; design: dose 10 mg/kg, route oral; conditions: read-out: Drug uptake
[13] = Plasma clearance in Sprague-Dawley rat at 1 mg/kg, iv; type: ADME, organism-based; design: dose 1 mg/kg, route intravenous
[14] = Oral bioavailability in Sprague-Dawley rat; type: ADME, organism-based; conditions: in vivo
[15] = Metabolic stability in mouse liver microsomes assessed as compound remaining after 30 mins; type: ADME, Microsome; conditions: read-out: Stability
[16] = Ratio of drug level in brain to plasma of Sprague-Dawley rat at 10 mg/kg, po after 2 hrs; type: ADME, organism-based; design: dose 10 mg/kg, route oral
[17] = system: Brain; assay: Drug level in Sprague-Dawley rat brain at 10 mg/kg, po after 2 hrs; type: ADME, organism-based; design: dose 10 mg/kg, route oral; conditions: in vivo
[18] = system: Brain; assay: Drug level in diet-induced obese C57BL/6J mouse brain at 30 mg/kg, po after 24 hrs; type: ADME, organism-based; design: dose 30 mg/kg, route oral; conditions: in vivo
[19] = Volume of distribution at steady state in Sprague-Dawley rat at 1 mg/kg, iv; type: ADME, organism-based; design: dose 1 mg/kg, route intravenous; conditions: in vivo, read-out: Vdss
[20] = Metabolic stability in human liver microsomes assessed as compound remaining after 30 mins; type: ADME, Microsome; conditions: read-out: Stability
[21] = Plasma concentration in diet-induced obese C57BL/6J mouse at 30 mg/kg, po after 24 hrs; type: ADME, organism-based; design: dose 30 mg/kg, route oral
[22] = Plasma concentration in Sprague-Dawley rat at 10 mg/kg, po after 2 hrs; type: ADME, organism-based; design: dose 10 mg/kg, route oral

Compound: CCO/N=C(/c1ccc(F)c(F)c1)c1ccc(CN2CCC3(CC2)OCc2cn(C)c(=O)cc23)cn1
- half-life [1]: 1.4 h
- remaining at 0.5 h [2]: 71%
- Cmax [3]: 4.27 µM
- Cmax [4]: 15.6 µM
- Tmax [5]: 2 h
- Cmax [6]: 1.85 µM
- AUC(0-inf) [7]: 15.4 µM·h
- Kp at 24 h [8]: 0.43
- Tmax [9]: 2 h
- AUC [10]: 6.57 µM·h
- AUC(0-inf) [11]: 90.7 µM·h
- concentration at 2 h [12]: 0.13 µM
- clearance [13]: 13 mL/min/kg
- bioavailability [14]: 87%
- remaining at 0.5 h [15]: 57%
- Kp at 2 h [16]: 0.49
- Drug uptake [17]: 2.2 nmol/g
- Drug uptake [18]: 0.052 nmol/g
- Vd [19]: 1.6 L/kg
- remaining at 0.5 h [20]: 68%
- concentration at 24 h [21]: 0.119 µM
- concentration at 2 h [22]: 4.5 µM

- remaining at 0.5 h [2]: 2%
- remaining at 0.5 h [15]: 11%
- remaining at 0.5 h [20]: 0%
Compound: CCO/N=C(/c1ccc(F)c(F)c1)c1ccc(CN2CCC3(CC2)OCc2cc(F)ncc23)cn1

- remaining at 0.5 h [2]: 84%
- remaining at 0.5 h [15]: 74%
- remaining at 0.5 h [20]: 77%
Compound: CCO/N=C(/c1ccc(F)c(F)c1)c1ccc(CN2CCC3(CC2)OCc2cc(=O)n(C)cc23)cn1

- remaining at 0.5 h [2]: 4%
- remaining at 0.5 h [15]: 3%
- remaining at 0.5 h [20]: 17%
Compound: Fc1cc2c(cn1)C1(CCN(Cc3ccc(Oc4ccc(F)c(F)c4)cc3)CC1)OC2

Compound: O=C(C(c1ccc(F)c(F)c1)n1cccn1)N(CCF)CCCN1CCC2(CC1)OCc1cc(F)ncc12 (centres undefined)
- remaining at 0.5 h [2]: 31%
- remaining at 0.5 h [15]: 22%
- remaining at 0.5 h [20]: 12%
